Calls of active or inactive are those of the source. The calls are words filed in the database; no cut-off is given here.
Assays:
OVCAR-8 = assay: Antiproliferative activity against human OVCAR8 cells assessed as growth inhibition after 48 hrs by sulforhodamine B assay; format: functional; details: OVCAR-8, 48 h
NCI-H226 = assay: Antiproliferative activity against human NCI-H226 cells assessed as growth inhibition after 48 hrs by sulforhodamine B assay; format: functional; details: NCI-H226, 48 h
TK-10 = assay: Antiproliferative activity against human TK10 cells assessed as growth inhibition after 48 hrs by sulforhodamine B assay; format: functional; details: TK-10, 48 h
HCT-116 [1] = assay: Induction of apoptosis in human HCT116 cells assessed as increase in caspase 9 mRNA expression at 100 nM after 6 hrs hrs by SYBR green dye-based qRT-PCR analysis relative to control; format: functional
HCT-15 = assay: Antiproliferative activity against human HCT15 cells assessed as growth inhibition after 48 hrs by sulforhodamine B assay; format: functional; details: HCT-15, 48 h
A549 = assay: Antiproliferative activity against human A549/ATCC cells assessed as growth inhibition after 48 hrs by sulforhodamine B assay; format: functional; details: A549, 48 h
SK-MEL-2 = assay: Antiproliferative activity against human SK-MEL-2 cells assessed as growth inhibition after 48 hrs by sulforhodamine B assay; format: functional; details: SK-MEL-2, 48 h
SK-MEL-5 = assay: Antiproliferative activity against human SK-MEL-5 cells assessed as growth inhibition after 48 hrs by sulforhodamine B assay; format: functional; details: SK-MEL-5, 48 h
OVCAR-4 = assay: Antiproliferative activity against human OVCAR4 cells assessed as growth inhibition after 48 hrs by sulforhodamine B assay; format: functional; details: OVCAR-4, 48 h
NCI-H23 = assay: Antiproliferative activity against human NCI-H23 cells assessed as growth inhibition after 48 hrs by sulforhodamine B assay; format: functional; details: NCI-H23, 48 h
RPMI-8226 = assay: Antiproliferative activity against human RPMI8226 cells assessed as growth inhibition after 48 hrs by sulforhodamine B assay; format: functional; details: RPMI-8226, 48 h
[2] = test system: Panel NCI-60 (60 carcinoma cell lines); assay: Antiproliferative activity against human NCI60 cells assessed as growth inhibition at 10 uM after 48 hrs by sulforhodamine B assay; format: functional; details: read-out: GI
[3] = Haemolytic activity in human erythrocytes assessed as induction of hemolysis at 10 mM after 30 mins relative to H202; format: cell-based, Erythrocyte; details: read-out: Activity
OVCAR-5 = assay: Antiproliferative activity against human OVCAR5 cells assessed as growth inhibition after 48 hrs by sulforhodamine B assay; format: functional; details: OVCAR-5, 48 h
CAKI-1 = assay: Antiproliferative activity against human CAKI-1 cells assessed as growth inhibition after 48 hrs by sulforhodamine B assay; format: functional; details: CAKI-1, 48 h
HT-29 = assay: Antiproliferative activity against human HT-29 cells assessed as growth inhibition after 48 hrs by sulforhodamine B assay; format: functional; details: HT-29, 48 h
[4] = Antioxidant activity assessed as DPPH radical scavenging activity incubated in dark for 30 mins by spectrophotometric method relative to control; format: functional; design: concentration or dose not given beside the values
RXF 393 = assay: Antiproliferative activity against human RXF393 cells assessed as growth inhibition after 48 hrs by sulforhodamine B assay; format: functional; details: RXF 393, 48 h
MDA-MB-468 = assay: Antiproliferative activity against human MDA-MB-468 cells assessed as growth inhibition after 48 hrs by sulforhodamine B assay; format: functional; details: MDA-MB-468, 48 h
786-0 = assay: Antiproliferative activity against human 786-0 cells assessed as growth inhibition after 48 hrs by sulforhodamine B assay; format: functional; details: 786-0, 48 h
ACHN = assay: Antiproliferative activity against human ACHN cells assessed as growth inhibition after 48 hrs by sulforhodamine B assay; format: functional
SN12C = assay: Antiproliferative activity against human SN12C cells assessed as growth inhibition after 48 hrs by sulforhodamine B assay; format: functional
SK-OV-3 = assay: Antiproliferative activity against human SKOV3 cells assessed as growth inhibition after 48 hrs by sulforhodamine B assay; format: functional; details: SK-OV-3, 48 h
SNB-75 = assay: Antiproliferative activity against human SNB75 cells assessed as growth inhibition after 48 hrs by sulforhodamine B assay; format: functional; details: SNB-75, 48 h
Hs-578T = assay: Antiproliferative activity against human Hs578T cells assessed as growth inhibition after 48 hrs by sulforhodamine B assay; format: functional
CCRF-CEM = assay: Antiproliferative activity against human CCRF-CEM cells assessed as growth inhibition after 48 hrs by sulforhodamine B assay; format: functional
SF-268 = assay: Antiproliferative activity against human SF268 cells assessed as growth inhibition after 48 hrs by sulforhodamine B assay; format: functional; details: SF-268, 48 h
SK-MEL-28 = assay: Antiproliferative activity against human SK-MEL-28 cells assessed as growth inhibition after 48 hrs by sulforhodamine B assay; format: functional; details: SK-MEL-28, 48 h
HL-60(TB) = assay: Antiproliferative activity against human HL-60(TB) cells assessed as growth inhibition after 48 hrs by sulforhodamine B assay; format: functional; details: HL-60, 48 h
U-251 = assay: Antiproliferative activity against human U251 cells assessed as growth inhibition after 48 hrs by sulforhodamine B assay; format: functional; details: U-251, 48 h
UO-31 = assay: Antiproliferative activity against human UO31 cells assessed as growth inhibition after 48 hrs by sulforhodamine B assay; format: functional; details: UO-31, 48 h
Erythrocyte = assay: Haemolytic activity in human erythrocytes assessed as induction of hemolysis at 1.25 mM after 30 mins relative to H202; format: cell-based; details: erythrocyte, 0.5 h, 1250 µM
MOLT-4 = assay: Antiproliferative activity against human MOLT4 cells assessed as growth inhibition after 48 hrs by sulforhodamine B assay; format: functional; details: MOLT-4, 48 h
[5] = Antioxidant activity assessed as ABTS radical scavenging activity by spectrophotometric analysis relative to control; format: functional; design: concentration or dose not given beside the values; details: dose or concentration not given here
[6] = Pro-oxidant activity assessed as increase in bleomycin-Fe2+ induced calf thymus DNA damage at 2 mM after 1 hr by thiobarbituric acid based absorbance analysis
HCT-116 [7] = assay: Induction of apoptosis in human HCT116 cells assessed as increase in p53 mRNA expression at 100 nM after 6 hrs hrs by SYBR green dye-based qRT-PCR analysis relative to control; format: functional
MCF7 = assay: Antiproliferative activity against human MCF7 cells assessed as growth inhibition after 48 hrs by sulforhodamine B assay; format: functional; details: MCF7, 48 h
SF-539 = assay: Antiproliferative activity against human SF539 cells assessed as growth inhibition after 48 hrs by sulforhodamine B assay; format: functional; details: SF-539, 48 h
SF-295 = assay: Antiproliferative activity against human SF295 cells assessed as growth inhibition after 48 hrs by sulforhodamine B assay; format: functional; details: SF-295, 48 h
HCT-116 [8] = assay: Antiproliferative activity against human HCT116 cells assessed as growth inhibition after 48 hrs by sulforhodamine B assay; format: functional; details: HCT-116, 48 h
M14 = assay: Antiproliferative activity against human M14 cells assessed as growth inhibition after 48 hrs by sulforhodamine B assay; format: functional; details: M14, 48 h
PC-3 = assay: Antiproliferative activity against human PC3 cells assessed as growth inhibition after 48 hrs by sulforhodamine B assay; format: functional; details: PC-3, 48 h

COc1ccc2cc(-c3ccc(-c4ccc(C(=N)N)s4)s3)ccc2c1
GI50 (OVCAR-8): 2.34 µM | GI50 (NCI-H226): 23.6 µM | GI50 (TK-10): 14.2 µM | fold change (FC) (HCT-116 [1]): 2.51 | GI50 (HCT-15): 1.89 µM | GI50 (A549): 2.22 µM | GI50 (SK-MEL-2): 2.66 µM | GI50 (SK-MEL-5): 16.1 µM | GI50 (OVCAR-4): 1.82 µM | GI50 (NCI-H23): 3.22 µM | GI50 (RPMI-8226): 2.16 µM | inhibition of growth at 10 µM [2]: 95.3% | hemolysis at 0.5 h, 10000 µM [3]: 18.7% | GI50 (OVCAR-5): 2.11 µM | GI50 (CAKI-1): 8.29 µM | GI50 (HT-29): 1.72 µM | inhibition [4]: 43% | GI50 (RXF 393): 7.22 µM | GI50 (MDA-MB-468): 2.34 µM | GI50 (786-0): 2.04 µM | GI50 (ACHN): 3.06 µM | GI50 (SN12C): 2.12 µM | GI50 (SK-OV-3): 17.9 µM | GI50 (SNB-75): 10.4 µM | GI50 (Hs-578T): 16.6 µM | GI50 (CCRF-CEM): 1.51 µM | GI50 (SF-268): 2.1 µM | GI50 (SK-MEL-28): 2.5 µM | GI50 (HL-60(TB)): 1.84 µM | GI50 (U-251): 1.83 µM | GI50 (UO-31): 2.88 µM | Activity (Erythrocyte): Non-Toxic | GI50 (MOLT-4): 2.17 µM | inhibition [5]: 57.4% | Activity [6]: Active | fold change (FC) (HCT-116 [7]): 1.03 | GI50 (MCF7): 1.91 µM | GI50 (SF-539): 3.91 µM | GI50 (SF-295): 5.07 µM | GI50 (HCT-116 [8]): 2.08 µM | GI50 (M14): 4 µM | GI50 (PC-3): 2.13 µM

N=C(N)c1ccc(-c2ccc(-c3ccc(F)cc3)o2)o1
GI50 (OVCAR-8): 1.98 µM | GI50 (NCI-H226): 2.82 µM | GI50 (TK-10): 1.55 µM | fold change (FC) (HCT-116 [1]): 4.67 | GI50 (HCT-15): 0.63 µM | GI50 (A549): 1.65 µM | GI50 (SK-MEL-2): 1.76 µM | GI50 (SK-MEL-5): 1.56 µM | GI50 (OVCAR-4): 1.62 µM | GI50 (NCI-H23): 1.93 µM | GI50 (RPMI-8226): 2.48 µM | inhibition of growth at 10 µM [2]: 83.8% | hemolysis at 0.5 h, 10000 µM [3]: 90% | GI50 (OVCAR-5): 1.66 µM | GI50 (CAKI-1): 1.71 µM | GI50 (HT-29): 0.61 µM | inhibition [4]: 9.9% | GI50 (RXF 393): 1.6 µM | GI50 (MDA-MB-468): 1.36 µM | GI50 (786-0): 1.66 µM | GI50 (ACHN): 1.6 µM | GI50 (SN12C): 1.8 µM | GI50 (SK-OV-3): 2.32 µM | GI50 (SNB-75): 1.55 µM | GI50 (Hs-578T): 1.95 µM | GI50 (CCRF-CEM): 1.84 µM | GI50 (SF-268): 1.92 µM | GI50 (SK-MEL-28): 1.63 µM | GI50 (HL-60(TB)): 1.8 µM | GI50 (U-251): 1.6 µM | GI50 (UO-31): 1.43 µM | Activity (Erythrocyte): Non-Toxic | GI50 (MOLT-4): 1.6 µM | inhibition [5]: 13.2% | Activity [6]: Active | fold change (FC) (HCT-116 [7]): 0.96 | GI50 (MCF7): 0.68 µM | GI50 (SF-539): 1.63 µM | GI50 (SF-295): 1.51 µM | GI50 (HCT-116 [8]): 1.18 µM | GI50 (M14): 1.23 µM | GI50 (PC-3): 1.22 µM

N=C(N)c1ccc(-c2ccc(-c3ccc4ccccc4c3)s2)s1
GI50 (OVCAR-8): 2.27 µM | GI50 (NCI-H226): 33.6 µM | GI50 (TK-10): 2.23 µM | fold change (FC) (HCT-116 [1]): 2.33 | GI50 (HCT-15): 1.69 µM | GI50 (A549): 2.03 µM | GI50 (SK-MEL-2): 2.52 µM | GI50 (SK-MEL-5): 14.7 µM | GI50 (OVCAR-4): 1.91 µM | GI50 (NCI-H23): 2.95 µM | GI50 (RPMI-8226): 2.3 µM | inhibition of growth at 10 µM [2]: 96.7% | hemolysis at 0.5 h, 10000 µM [3]: 21.1% | GI50 (OVCAR-5): 1.81 µM | GI50 (CAKI-1): 3.11 µM | GI50 (HT-29): 1.71 µM | inhibition [4]: 54.6% | GI50 (RXF 393): 1.93 µM | GI50 (MDA-MB-468): 2.38 µM | GI50 (786-0): 2.14 µM | GI50 (ACHN): 2.53 µM | GI50 (SN12C): 1.87 µM | GI50 (SK-OV-3): 20.2 µM | GI50 (SNB-75): 1.93 µM | GI50 (Hs-578T): 2.07 µM | GI50 (CCRF-CEM): 1.87 µM | GI50 (SF-268): 2.25 µM | GI50 (SK-MEL-28): 2.25 µM | GI50 (HL-60(TB)): 1.81 µM | GI50 (U-251): 1.81 µM | GI50 (UO-31): 1.96 µM | Activity (Erythrocyte): Non-Toxic | GI50 (MOLT-4): 1.47 µM | inhibition [5]: 72.8% | Activity [6]: Active | fold change (FC) (HCT-116 [7]): 1 | GI50 (MCF7): 1.75 µM | GI50 (SF-539): 1.97 µM | GI50 (SF-295): 2.27 µM | GI50 (HCT-116 [8]): 1.77 µM | GI50 (M14): 2.45 µM | GI50 (PC-3): 2.19 µM

Source: ChEMBL document CHEMBL4346657, “Anticancer activity, dual prooxidant/antioxidant effect and apoptosis induction profile of new bichalcophene-5-carboxamidines” (Eur J Med Chem, 2019)
